The test system of data set [1] is mice irradiated with an LD100. Kind of data set: Radiation mitigation: survival of mice irradiated with an LD100. Type of data set: in vivo. As for the experimental part:
There were 10 primary hits and 6 confirmed hits and 2 of them were used in mice. Mice were irradiated with an LD100 after which 100% of the mice died after 10 to 15 days. When the researchers injected YEL002 IP into the irradiated mice 24 hours after radiation and another four doses in 24 hours intervals 100% of the mice, so all mice which would otherwise have died survived which was a highly significant difference. Many lived a normal life span of more than 2 years which is interesting since other labs which isolated other compounds their mice died of late radiation effects much earlier.

Data set [2] deals with ATM-deficient mice. The data set can be described thus: Lifespan of ATM-deficient mice injected weekly. Type of data set: in vivo. The conditions noted are these: ATM-deficient mice injected every week during most of their lifespans.
In data set [3] the test system is lymphoma. The data set can be described thus: Lymphoma incidence in mice (National Institute of Health experiment). The settings on record: radiation exposure caused 90% to develop lymphoma without treatment. Format: in vivo. The procedure:
This was observed after treating mice right after birth, if humans are treated later in life it is possible that only 10 or 5 years are added and probably more for DNA repair deficient diseases like ataxia telangiectasia (ATM) which is still very substantial.

The test system of data set [4] is three different cancer cell lines. The data set can be described thus: Radiation killing of cancer cell lines. Type of data set: cell-based.
The subject of data set [5] is human keratinocytes. The data set can be described thus: Proteomics study of induced proteins. Type of data set: cell-based. From the text:
In terms of mechanism of action in a proteomics study, the chemical was capable of inducing 244 different proteins in human keratinocytes, which comprised anti-inflammatory proteins, a number of DNA repair proteins, and even some neuroprotective proteins. It is known that turtles at the Galapagos Islands live 150 or more years without cancer and have multiple copies of DNA repair genes and anti-inflammatory genes. The compound boosts the expression of these genes in mammals. Since it induces DNA repair and is anti-inflammatory, it may be possible to prevent and cure many diseases and extend the life. In addition, patients are using the compound to try to treat Alzheimer's, multiple sclerosis, alopecia, diabetes, to prevent prostate cancer, to increase testosterone level, etc. People report feeling more energetic, less tired, and less combative and become nicer.

The nature of data set [6]: Side effects observed. The conditions noted are these: in vivo. From the text: It is also observed that three different cancer cell lines were not protected from radiation killing by YEL002, which indicates a use in radiation oncology or chemotherapy where the tumor can still be killed by the radiation, or chemotherapy but YEL002 protects the rest of the body from radiation or chemotherapy damage, and inhibits secondary carcinogenesis.

The nature of data set [7]: Solubility / appearance. Type of data set: physicochemical. As for the experimental part: The compound takes the appearance of an off-white powder and is fat soluble. One takes a quarter teaspoon or about 0.5 g dissolved in a couple of teaspoons of oil. In an exemplary embodiment, it is dissolved in grape seed oil and taken twice a day, once in the morning and once in the evening. It is easy to use and has almost no taste.

The nature of data set [8]: Case study, eight weeks of use (coughing, diarrhea). Type of data set: in vivo, human. The conditions noted are these: used for eight weeks. From the text:
It has also beneficial effects on the skin and one needs less of a cosmetic cream containing the same compound.

A short description of data set [9]: User study: periodontics or receding gums. Further details: species or system human. The settings on record: in vivo. From the text:
In a user study, the patient's periodontics or receding gums were healed and no longer needed to floss teeth as much, since the teeth are now perfectly aligned and close together without a space in between.

A short description of data set [10]: Eye sight, eye exam in an ophthalmology office. Type of data set: in vivo, human. The procedure: The patient also observed no longer needing eyeglasses after 55 years of wearing them, and after 4 weeks with the drug, the subject can see much better than anybody their age. According to the patient, the compound fixed 2 diopters and 1 astigmatism of eye sight deficiency in only 4 weeks. An eye exam was conducted in an ophthalmology office. […] In every subject using the chemical the eye background is completely green, because YEL002 benefits the retina and optic nerve.

Data set [11] can be described thus: Patient testimonial: veins and blood. The settings on record: human, in vivo. From the text:
His blood is thinner, since proinflammatory factors make platelets sticky and cause blood clots. Thus, it prevents or treats blood clots.

The nature of data set [12]: Patient testimonial: elevated levels of liver damage. Format: in vivo, human. The settings on record: after two days of treatment; twice elevated for 25 years before.
Data set [13] is described as follows: Patient testimonial: subject on chemotherapy. Type of data set: in vivo, human. The conditions noted are these: one week on YEL002, subject on chemotherapy. From the text: They are extremely happy and all their doctors are happy too and told them that they need to continue their experimental therapy.
Data set [14] is described as follows: Patient testimonial: subject post-chemotherapy, coughing and wheezing. Format: in vivo, human. The settings on record: one hour after treatment. From the text:
According to another patient testimonial, one subject post-chemotherapy had coughing and wheezing symptoms and went downhill very fast and their child was worried that they were dying.

The nature of data set [15]: Patient testimonial: heavy smoker, smoker's leg and hair loss. The conditions noted are these: one week after treatment. Format: in vivo, human. From the text: According to another patient testimonial, one subject was a heavy smoker and they had all kinds of inflammation problems including smoker's leg which were oozing lymph liquid and could not heal for many years.

A short description of data set [16]: Patient testimonial: nose spray in oil, allergic attacks. Format: in vivo, human. The settings on record: dissolved in oil, nose spray 2-4 times a day. From the text:
According to another patient testimonial, one subject dissolved YEL002 in oil and used that oil to spray their nose 2-4 times a day.

The text below walks through data of patent US20260007651A1, “Effect of YEL002 on Conditions and Diseases” (RadMit, Inc., priority 2022, published 2026).

In turn, `COc1ccc2cc(-c3nc4ccc(C)cn4c3NCc3ccco3)c(=O)[nH]c2c1` [YEL002] came in with a mice survived in data set [1] (LD100 irradiation, IP 24 hours after radiation and another four doses in 24 hours intervals, without treatment 100% died after 10 to 15 days) of 100%. In data set [1] (many of the surviving mice), the “life span of surviving irradiated mice” value is “more than 2 years”. In [2], the “lived longer than without injections” value is listed as 33%. Also, the “lymphoma incidence after radiation exposure” value in data set [3] was 40%. Moreover, the “protection of cancer cell lines from radiation killing” value in [4] was “not protected”. In addition, the “number of different proteins induced” value in [5] (human keratinocytes, anti-inflammatory, DNA repair and neuroprotective proteins) was found to be 244. Also, in data set [5] (proteomics), the “number of neuroprotective functions induced” value came to 9. In data set [6], the side effects entry is on record as “no side effects”. Moreover, in data set [7], the solubility entry is “fat soluble”. The “symptoms of coughing and diarrhea” value in data set [8] was “reduced symptoms of coughing and diarrhea”. The “periodontics or receding gums” value in data set [9] is listed as “healed”. The need for eyeglasses entry in data set [10] (another subject who had 6 diopters) is given as “does not require eyeglasses any longer”. In data set [10] (in 4 weeks), the “eye sight deficiency fixed, astigmatism” value is 1 astigmatism and the “eye sight deficiency fixed, diopters” value was determined as 2 diopters. Further, in data set [11], the blood entry is on record as “thinner”; the “varicose and spider veins” value is “fixes varicose and spider veins”. Further, in data set [12], the “levels of liver damage” value was “normal and below the cutoff”. Further, in data set [13], the body weight gained is reported as 2 kg and the vomiting result is “completely stopped”. Moreover, in data set [14], the “coughing and wheezing symptoms” value was “completely alleviated”. Besides, in data set [15], the hair loss entry was “completely stopped” and the “smoker's leg condition” value is reported as “completely healed”. In data set [16], the “allergic attacks such as sneezing and runny nose” value was “completely prevented all allergic attacks”.
